Test results from ChEMBL document CHEMBL4028852, “Design of a Chemical Probe for the Bromodomain and Plant Homeodomain Finger-Containing (BRPF) Family of Proteins” (J Med Chem, 2017).

Legend:
[1] = target: T1, Peregrin (Homo sapiens, UniProt P55201); experiment: Inhibition of His-tagged BRPF1 (unknown origin) after 30 mins by alphaScreen assay
T1 sequence (P55201 whole entry): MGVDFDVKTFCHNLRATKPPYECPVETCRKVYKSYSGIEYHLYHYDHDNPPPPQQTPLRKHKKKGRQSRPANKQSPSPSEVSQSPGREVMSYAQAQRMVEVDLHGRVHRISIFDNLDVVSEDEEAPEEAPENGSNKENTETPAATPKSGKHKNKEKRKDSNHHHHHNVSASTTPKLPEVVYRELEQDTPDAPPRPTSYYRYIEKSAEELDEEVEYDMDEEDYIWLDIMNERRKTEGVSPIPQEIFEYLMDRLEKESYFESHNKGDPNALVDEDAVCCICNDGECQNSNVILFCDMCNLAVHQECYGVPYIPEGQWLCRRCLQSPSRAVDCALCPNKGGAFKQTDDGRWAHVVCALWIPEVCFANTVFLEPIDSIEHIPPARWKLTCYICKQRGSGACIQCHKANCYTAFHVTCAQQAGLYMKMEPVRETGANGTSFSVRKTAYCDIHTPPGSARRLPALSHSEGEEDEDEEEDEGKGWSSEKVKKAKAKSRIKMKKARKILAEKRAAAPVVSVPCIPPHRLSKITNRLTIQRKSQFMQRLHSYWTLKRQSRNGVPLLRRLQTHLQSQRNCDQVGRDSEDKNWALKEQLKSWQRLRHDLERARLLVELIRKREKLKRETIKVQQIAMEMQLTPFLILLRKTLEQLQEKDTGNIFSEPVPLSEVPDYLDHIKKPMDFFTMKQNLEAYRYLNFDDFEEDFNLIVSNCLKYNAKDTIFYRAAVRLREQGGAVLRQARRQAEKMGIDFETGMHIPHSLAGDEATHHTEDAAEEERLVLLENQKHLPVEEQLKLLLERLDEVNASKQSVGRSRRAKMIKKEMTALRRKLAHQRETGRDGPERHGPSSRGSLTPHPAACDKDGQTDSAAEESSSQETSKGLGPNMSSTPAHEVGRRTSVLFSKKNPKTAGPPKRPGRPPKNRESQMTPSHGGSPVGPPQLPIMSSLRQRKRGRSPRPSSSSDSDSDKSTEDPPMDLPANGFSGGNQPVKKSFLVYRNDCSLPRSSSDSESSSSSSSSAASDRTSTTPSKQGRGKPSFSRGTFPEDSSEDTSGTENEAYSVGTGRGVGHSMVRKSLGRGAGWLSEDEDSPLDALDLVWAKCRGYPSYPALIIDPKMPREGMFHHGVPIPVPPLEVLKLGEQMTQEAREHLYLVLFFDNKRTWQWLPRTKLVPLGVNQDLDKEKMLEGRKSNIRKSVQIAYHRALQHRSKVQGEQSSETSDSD

[2] = target: T1, Peregrin; experiment: Inhibition of BRPF1B (unknown origin) binding to histone H3.3 by nonoBRET assay
[3] = Fraction of drug absorbed in CD1 mouse at 3 mg/kg, po by UPLC-MS/MS analysis; assay type: ADME, organism-based; settings: in vivo, read-out: Fabs
[4] = target: T2, Bromodomain-containing protein 9 (Homo sapiens, UniProt Q9H8M2); experiment: Binding affinity to BRD9 (unknown origin) by isothermal titration calorimetry
T2 sequence (Q9H8M2 whole entry): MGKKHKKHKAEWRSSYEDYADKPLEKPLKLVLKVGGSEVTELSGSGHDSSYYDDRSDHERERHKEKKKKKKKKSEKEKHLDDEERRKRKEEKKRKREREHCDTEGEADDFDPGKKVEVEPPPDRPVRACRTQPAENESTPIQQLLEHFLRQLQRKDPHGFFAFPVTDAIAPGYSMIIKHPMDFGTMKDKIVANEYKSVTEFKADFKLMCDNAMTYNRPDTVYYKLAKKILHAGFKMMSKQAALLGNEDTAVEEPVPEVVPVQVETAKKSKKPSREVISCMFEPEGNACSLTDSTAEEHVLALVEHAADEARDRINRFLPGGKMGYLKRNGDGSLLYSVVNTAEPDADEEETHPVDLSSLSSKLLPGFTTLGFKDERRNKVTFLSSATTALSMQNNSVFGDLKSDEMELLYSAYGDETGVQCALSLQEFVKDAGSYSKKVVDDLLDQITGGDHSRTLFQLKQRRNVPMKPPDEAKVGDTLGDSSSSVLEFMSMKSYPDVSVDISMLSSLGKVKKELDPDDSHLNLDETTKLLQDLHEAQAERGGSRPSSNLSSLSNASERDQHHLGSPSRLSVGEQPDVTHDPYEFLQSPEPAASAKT

[5] = target: T3, Kv4.3/KChIP2 (Homo sapiens, UniProt Q9NS61+Q9UK17); experiment: Inhibition of Kv4.3/KChIP2 (unknown origin) at 30 uM; assay type: protein-complex assay
T3 sequence (Q9UK17 whole entry): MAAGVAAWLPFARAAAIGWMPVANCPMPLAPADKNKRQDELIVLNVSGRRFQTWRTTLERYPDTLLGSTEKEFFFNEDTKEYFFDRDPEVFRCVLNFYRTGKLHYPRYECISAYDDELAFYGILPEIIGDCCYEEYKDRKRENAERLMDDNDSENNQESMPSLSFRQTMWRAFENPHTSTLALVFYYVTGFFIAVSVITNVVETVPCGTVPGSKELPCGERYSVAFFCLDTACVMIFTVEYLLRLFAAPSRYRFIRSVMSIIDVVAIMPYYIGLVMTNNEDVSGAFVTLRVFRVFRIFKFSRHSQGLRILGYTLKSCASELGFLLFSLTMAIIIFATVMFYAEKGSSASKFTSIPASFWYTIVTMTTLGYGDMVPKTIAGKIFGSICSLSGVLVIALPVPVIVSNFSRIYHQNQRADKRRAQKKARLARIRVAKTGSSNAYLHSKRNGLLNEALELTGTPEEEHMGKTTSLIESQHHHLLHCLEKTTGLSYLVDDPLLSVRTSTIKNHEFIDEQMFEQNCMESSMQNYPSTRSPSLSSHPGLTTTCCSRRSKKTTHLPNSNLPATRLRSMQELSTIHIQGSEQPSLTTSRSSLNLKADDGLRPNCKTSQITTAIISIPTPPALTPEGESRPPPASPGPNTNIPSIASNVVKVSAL
T3 sequence (Q9NS61 whole entry): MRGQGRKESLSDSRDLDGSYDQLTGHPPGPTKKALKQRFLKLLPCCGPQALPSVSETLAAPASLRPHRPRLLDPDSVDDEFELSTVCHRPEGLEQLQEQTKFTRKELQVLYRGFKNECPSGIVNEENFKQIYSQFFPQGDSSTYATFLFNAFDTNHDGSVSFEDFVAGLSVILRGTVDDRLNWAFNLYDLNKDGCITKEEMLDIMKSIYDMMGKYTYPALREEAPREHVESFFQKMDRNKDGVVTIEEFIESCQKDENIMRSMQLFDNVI

COc1cc(C#N)ccc1S(=O)(=O)Nc1ccc2c(c1)cc(C)c(=O)n2C
IC50 [1]: 114 nM | IC50 [2]: 70 nM | Fa [3]: 35% | Kd [4]: 1000 nM | inhibition at 30 µM [5]: < 40%
